Laboratory results published in patent US20250127813A1, “COMBINATION DRUG” (OTSUKA PHARMACEUTICAL CO., LTD., priority 2021, published 2025).
Entries after “also recorded” stand apart in the source; their conditions may differ.

Key:
NALM6-luc2 = assay: Combination of tolinapant and CD19 CAR-T against a low volume of tumor (NALM6-luc2, NOG mice); format: in vivo, mouse
From the text: (§1) For the measurement, IVIS (trademark) Lumina X5 was used.

MM.1S-luc2 = assay: Combination of tolinapant and activated integrin β7 CAR-T in MM.1S-luc2 tumor-bearing NOG mice; format: in vivo, mouse
Procedure: (§2) Each mouse was identified with a number attached to the tail of the mouse. During the breeding period, the mice were housed in groups of 5 mice each and bred in a breeding room at a temperature of 24° C.
The evaluation period was set to up to day 14 or day 21. Grouping and pharmacological evaluation were performed using tumor luminescence values as determined by IVIS as an indicator. The luminescence value as determined by IVIS and body weight were measured twice a week.
After grouping, the individuals were identified by marking on the tail of each mouse.
as §1

NALM6 = assay: Combination of tolinapant and CD19 CAR-KHYG-1 in NALM6 subcutaneous tumor-bearing NOG mice; format: in vivo, mouse
Procedure: as §2
After grouping, CD19 CAR KHYG-1 cells and KHYG-1 cells were intratumorally administered 4 times in total according to the group constitution.
The evaluation period was set up to day 17. Grouping and pharmacological evaluation were performed using the results of tumor volume measurement with a caliper as an indicator. The tumor volume measurement and body weight measurement were performed twice a week and before each administration. […]
On the 21th day after the transplantation, the long diameter and the short diameter were measured and the tumor volume was calculated. […]
4) For KHYG-1 cell administration solution and CD19 CAR-KHYG-1 cell administration solution, the number of viable cells was counted and a cell suspension with the cell density being adjusted according to the group composition table was prepared and intratumorally administered twice a week at 0.1 mL/body (4 times in total).
The tumor diameter was determined by measuring the short diameter and the long diameter using an electronic caliper (produced by Mitutoyo Corporation). After tumor cell transplantation, the tumor diameter was measured twice a week. […]

MDA-MB-231 = conditions: 16 mg/kg, daily oral administration; References 1 and 2; cited from earlier work

Compound: C[C@@H]1CN(CC(=O)N2CC(C)(C)c3nc(CO)c(Cc4ccc(F)cc4)cc32)[C@@H](CN2CCOC[C@H]2C)CN1 [Tolinapant, 1-[6-[(4-fluorophenyl)methyl]-5-(hydroxymethyl)-3,3-dimethyl-2H-pyrrolo[3,2-b]pyridin-1-yl]-2-[(2R,5R)-5-methyl-2-[[(3R)-3-methylmorpholin-4-yl]methyl]piperazin-1-yl]ethanone]
- reduction in the number of CAR-T cells achieved by the combination (NALM6-luc2; 2×10^4 cells + tolinapant versus 1×10^6 cells alone, suggested possibility): at least 50 fold
- combination effect of tolinapant and CD19 CAR-T on a low volume of tumor (NALM6-luc2; tolinapant 16 mg/kg qd po + CD19 CAR-T): a strong combination effect was observed
- effect of tolinapant + 1×10^5 cells CD19 CAR-T compared with 1×10^6 cells CD19 CAR-T alone (NALM6-luc2; tolinapant 16 mg/kg qd po + CD19 CAR-T 1×10^5 cells/body iv): an effect equivalent to the effect achieved by using 1×10^6 cells of CD19 CAR-T alone was observed on day 17
- effect of tolinapant + 2×10^4 cells CD19 CAR-T compared with 1×10^6 cells CD19 CAR-T alone (NALM6-luc2; tolinapant 16 mg/kg qd po + CD19 CAR-T 2×10^4 cells/body iv): an effect equivalent to the effect achieved by using 1×10^6 cells of CD19 CAR-T alone was observed on day 21
- combination effect of tolinapant and aITGB7 CAR-T (tumor luminescence value) (MM.1S-luc2; tolinapant 16 mg/kg po every day + aITGB7 CAR-T 3×10^4 cells/body iv, evaluated for 21 days): A significant combination effect was observed; also recorded: tumor regression was clearly observed on day 11 and thereafter; also recorded: a significant synergistic effect was observed; also recorded: significant, highly reproducible results
- effect of tolinapant administered alone on MM.1S (MM) (MM.1S-luc2; tolinapant alone): no effect
- combination effect of tolinapant and CD19 CAR-KHYG-1 (tumor volume) (NALM6; tolinapant 16 mg/kg po every day + CD19 CAR-KHYG-1 1×10^7 cells/body intratumoral Day 0, 4, 7, 11, evaluated for 17 days): A significant combination effect was observed; also recorded: a proliferation suppression effect was clearly shown on day 7 and thereafter; also recorded: significant combination effects were observed on day 17; also recorded: significant, highly reproducible results
- antitumor effect of tolinapant alone (NALM6; tolinapant alone, 16 mg/kg po every day): no antitumor effects were observed
- efficacy of tolinapant in MDA-MB-231 xenograft mice (MDA-MB-231): exhibited efficacy
